Where two headings read alike, the source gives them in different places.
Tests used:
HeLa cells = test: Action in inhibiting the lowering of MTT reduction capacity by Aβ1-40; type: cell-based
Experimental: The HeLa cells employed were purchased from the Dainippon Pharmaceutical Co.
The HeLa cells were seeded by suspension in MEM (Minimum essential medium; produced by the Sigma Chemical Co.) containing 10% inactivated FBS (foetal bovine serum) such that there were 1,000 per well in a 96-well microplate, and then culturing was carried out overnight in an incubator at 37° C. in the presence of 5% CO2.
The test compound was dissolved in dimethyl sulphoxide (DMSO) and diluted with the MEM medium so that the final concentration of DMSO was no more than 0.1 wt %, and added to the cells seeded the previous day. […] Overnight culturing was carried out using an incubator at 37° C. in the presence of 5% CO2, with 100 μL/well of MEM medium containing 5% deactivated FBS.
Now, prior to use, the Aβ1-40 had been dissolved in buffer and left overnight so that the amyloid coagulated.
In order to determine the percentage inhibition of the test compound, cells alone, cells where Aβ1-40 had been added, and cells where only the test compound had been added, were also incubated overnight under the same conditions.
The following day, there was added 10 μL/well of MTT [3-(4,5-dimethylthiazol-2-yl)-2,5-diphenyltetrazolium bromide: produced by Wako Pure Chemical Industries] prepared at a concentration of 5 mg/mL with phosphate buffered saline (PBS), and incubation carried out for 2 hours at 37° C. in the presence of 5% CO2. The medium was then eliminated and the formazan dye produced measured […] (A570 nm-A650 nm) using a Microplate Reader (produced by the Molecular Devices Co.), by dissolving with the addition of 100 μL per well of isopropanol. In this way, the change in the MTT reduction capacity of the HeLa cells was measured.
The percentage inhibition (%) by the test compound was determined from the following formula. inhibition (%) [[…]/(a−c)]×100 where • a=MTT reduction capacity when untreated • b=MTT reduction capacity when Aβ1-40 and the test compound are added • c=MTT reduction capacity when only Aβ1-40 is added

[1] = test system: acute sections from the hippocampus; test: Suppression of Aβ1-42-induced long-term potentiation impairment (fEPSP slope) in acute hippocampal sections; type: cell-based, Wistar rats
Experimental: The method for testing the suppression of the impairment of long-term potentiation was based on that described in J. Neurosci. Vol. 20, 2003-10 (2000). That is to say, acute^i sections of thickness 400 μm were prepared from the hippocampus of the brains of 3-4 week old male Wistar rats. These acute sections were immersed in artificial cerebrospinal fluid in which β-amyloid protein (Aβ1-42: produced by the Sigma Chemical Co.) and compound from Production Examples 1 or 12 had been dissolved, and pretreatment carried out for 5 hours.
In the measurement using the compound from Production Example 1, the concentration of the Aβ1-42 in the artificial cerebrospinal fluid was 500 nM and the concentration of the compound from Production Example 1 was 1 μg/mL. In the measurement using the compound from Production Example 12, the concentration of the Aβ1-42 in the artificial cerebrospinal fluid was 1 μM and the concentration of the compound from Production Example 12 was 3 μg/mL. Now, the Aβ1-42 was used after coagulation of the amyloid by leaving overnight.
100 pulses of high frequency stimulation at 100 Hz were applied to the pretreated acute sections, and the field excitatory postsynaptic potential: fEPSP) measured by an extracellular recording method.
The fEPSP was measured at 30 second intervals following application of the high frequency stimulation and the fEPSP slope (units [%]) measured. The average values of the slope over 0-20 minutes, 20-40 minutes and 40-60 minutes were determined. This test was repeated five times over. In the table, the figures are the average values ±standard deviation for the five averages obtained in the five tests. […] “Aβ” denotes the Aβ1-42.
As controls, measurements were made of the fEPSP [mV] under the same conditions for acute sections pretreated with the artificial cerebrospinal fluid alone, acute sections pretreated with the artificial cerebrospinal fluid in which Aβ1-42 had been dissolved, and acute sections pretreated with artificial cerebrospinal fluid in which only the compound from Production Example 1 or 12 had been dissolved, and then the average value of the fEPSP slope [%] obtained.

[2] = Table 8, Aβ (1 μM) + compound 1 μg/mL
[3] = Table 8, compound alone 1 μg/mL, no Aβ
[4] = Homo sapiens, HeLa cells, Aβ1-40 (100 nM), read-out: IC50 (action in inhibiting the lowering of the MTT reduction capacity by Aβ1-40)
[5] = Test 1, Aβ1-42 (500 nM) + compound 1 μg/mL
[6] = Test 1, compound alone 1 μg/mL, no Aβ

Question: For CC1(C)CC(C)(c2ccc(O)cc2O)c2ccc(O)cc2O1 (stereo not drawn) [Compound A, 4-(7-hydroxy-2,4,4-trimethyl-chroman-4-yl)benzene-1,3-diol, reference compound], which IC50 (HeLa cells; same method as Table 6, HeLa cells, Aβ1-40, read-out: 50% inhibitory concentration (IC50), action in suppressing the lowering of MTT function) is on record?
Answer: 12 µM

Question: What about the “Value of fEPSP Slope [%] 0-20 minutes” value [1, 2] of the same compound?
Answer: 159.5 ± 6.6%

Question: And the “Value of fEPSP Slope [%] 20-40 minutes” value [1, 2]?
Answer: 142.8 ± 5.4%

Question: And the “Value of fEPSP Slope [%] 40-60 minutes” value [1, 2]?
Answer: 137.3 ± 4.5%

Question: What about the “Value of fEPSP Slope [%] 0-20 minutes” value [1, 3] of the same compound?
Answer: 168.6 ± 13.0%

Question: What about the “Value of fEPSP Slope [%] 20-40 minutes” value [1, 3] of the same compound?
Answer: 146.6 ± 15.9%

Question: And the “Value of fEPSP Slope [%] 40-60 minutes” value [1, 3]?
Answer: 149.7 ± 16.1%

Question: What does the source list for CCc1nc(Nc2cccc(O)c2)nc(Nc2cccc(O)c2)n1 [Production Example 1, 6-Ethyl-N,N′-bis(3-hydroxyphenyl)-1,3,5-triazine-2,4-diamine]?
Answer: IC50 (HeLa cells; [4]): 3.5 µM; Value of fEPSP Slope [%] 0-20 minutes [1, 5]: 150.0 ± 8.4%; Value of fEPSP Slope [%] 20-40 minutes [1, 5]: 149.6 ± 6.9%; Value of fEPSP Slope [%] 40-60 minutes [1, 5]: 151.2 ± 7.5%; Value of fEPSP Slope [%] 0-20 minutes [1, 6]: 155.3 ± 3.4%; Value of fEPSP Slope [%] 20-40 minutes [1, 6]: 156.5 ± 3.9%; Value of fEPSP Slope [%] 40-60 minutes [1, 6]: 155.8 ± 5.0%; effect of compound on its own on LTP (result in words) ([1]; compound alone, no Aβ): inactive on its own; impairment of the LTP due to Aβ1-42 (result in words) ([1]; pretreating 5 hours with Aβ1-42 together with the compound): suppressed

Question: For CCc1nc(Nc2cccc(O)c2)cc(Nc2cccc(O)c2)n1 [Production Example 2, 2-Ethyl-N,N′-bis(3-hydroxyphenyl)pyrimidine-4,6-diamine], which IC50 (HeLa cells; [4]) is on record?
Answer: 1.9 µM

Question: How did the IC50 (HeLa cells; [4]) turn out when Oc1cccc(Nc2cc(Nc3cccc(O)c3)ncn2)c1 [Production Example 5, N,N′-bis(3-hydroxyphenyl)pyrimidine-4,6-diamine] was run?
Answer: 9.6 µM

Question: With Oc1cccc(Nc2ccnc(Nc3cccc(O)c3)n2)c1 [Production Example 6, N,N′-bis(3-hydroxyphenyl)pyrimidine-2,4-diamine] as the compound, how does the IC50 (HeLa cells; [4]) read?
Answer: 6.7 µM

Question: CCCCc1nc(Nc2cccc(O)c2)cc(Nc2cccc(O)c2)n1 [Production Example 8, 2-Butyl-N,N′-bis(3-hydroxyphenyl)pyrimidine-4,6-diamine] was tested. Which IC50 (HeLa cells; [4]) did it give?
Answer: 5.5 µM

Question: CCCc1nc(Nc2cccc(O)c2)cc(Nc2cccc(O)c2)n1 [Production Example 9, 2-Propyl-N,N′-bis(3-hydroxyphenyl)pyrimidine-4,6-diamine] was tested. Which IC50 (HeLa cells; [4]) did it give?
Answer: 2.4 µM

Question: How did the IC50 (HeLa cells; [4]) turn out when CCCc1nc(Nc2cccc(O)c2)nc(Nc2cccc(O)c2)n1 [Production Example 10, N,N′-bis(3-hydroxyphenyl)-6-propyl-1,3,5-triazine-2,4-diamine] was run?
Answer: 4.2 µM

Question: For Nc1nc(Nc2cccc(O)c2)cc(Nc2cccc(O)c2)n1 [Production Example 13, 2-Amino-N,N′-bis(3-hydroxyphenyl)pyrimidine-4,6-diamine], which IC50 (HeLa cells; [4]) is on record?
Answer: 5.5 µM

Question: O=[N+]([O-])c1c(Nc2cccc(O)c2)ncnc1Nc1cccc(O)c1 [Production Example 18, N,N′-bis(3-hydroxyphenyl)-5-nitropyrimidine-4,6-diamine] was tested. Which IC50 (HeLa cells; [4]) did it give?
Answer: 3.8 µM

Question: How did the IC50 (HeLa cells; [4]) turn out when Cc1nc(Nc2cccc(O)c2)nc(Nc2cccc(O)c2)n1 [Production Example 27, N,N′-bis(3-hydroxyphenyl)-6-methyl-1,3,5-triazine-2,4-diamine] was run?
Answer: 2.4 µM

Question: Which IC50 (HeLa cells; [4]) does the source give for CC(C)(C)c1nc(Nc2cccc(O)c2)nc(Nc2cccc(O)c2)n1 [Production Example 33, 6-t-Butyl-N,N′-bis(3-hydroxyphenyl)-1,3,5-triazine-2,4-diamine] here?
Answer: 2.2 µM

Question: For CCC(C)c1nc(Nc2cccc(O)c2)nc(Nc2cccc(O)c2)n1 (stereo not drawn) [Production Example 34, 6-s-Butyl-N,N′-bis(3-hydroxyphenyl)-1,3,5-triazine-2,4-diamine], which IC50 (HeLa cells; [4]) is on record?
Answer: 4.1 µM

From patent publication US8003645B2, “Preventives or remedies for Alzheimer's disease, or amyloid protein fibril-formation inhibitors, which include a nitrogen-containing heteroaryl compound” (BTG International Ltd., priority 2001, dated 2011)
